Experiment [1] addresses T1, P2X7 (Homo sapiens, UniProt Q99572).
T1 construct: endogenous in cells; host or cells: THP-1 human monocytic cell line
T1 sequence (Q99572 1-595): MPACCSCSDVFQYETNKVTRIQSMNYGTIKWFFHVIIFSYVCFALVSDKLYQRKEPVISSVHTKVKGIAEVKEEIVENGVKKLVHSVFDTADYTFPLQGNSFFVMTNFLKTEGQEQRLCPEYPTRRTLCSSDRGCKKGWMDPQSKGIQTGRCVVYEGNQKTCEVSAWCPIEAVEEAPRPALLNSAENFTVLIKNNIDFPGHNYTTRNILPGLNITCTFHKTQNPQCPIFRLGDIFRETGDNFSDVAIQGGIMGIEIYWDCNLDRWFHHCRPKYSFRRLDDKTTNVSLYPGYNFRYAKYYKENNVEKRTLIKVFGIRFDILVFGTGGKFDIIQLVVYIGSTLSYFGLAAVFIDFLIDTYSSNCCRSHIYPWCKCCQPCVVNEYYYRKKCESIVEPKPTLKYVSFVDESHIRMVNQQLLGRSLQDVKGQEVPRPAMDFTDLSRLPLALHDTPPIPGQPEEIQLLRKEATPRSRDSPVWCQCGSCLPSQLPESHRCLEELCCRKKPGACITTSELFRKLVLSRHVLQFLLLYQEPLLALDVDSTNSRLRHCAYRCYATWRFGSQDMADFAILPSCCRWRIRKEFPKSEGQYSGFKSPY
Description: THP-1 YoPro uptake assay (BzATP-stimulated Yo-Pro-1 uptake). Format: cell-based. The settings on record: Table F-10, THP-1 cells, read-out: mean pIC50 values for P2X7 antagonism (converted). The protocol: The human monocytic cell line THP-1 was grown as a suspension culture in RPMI medium supplemented with 10% fetal bovine serum, penicillin/streptomycin (50 units/mL), 2 mM L-glutamine, and 20 μM 2-mercaptoethanol. Cells were maintained at a density below 0.5 million per mL. On the day of the assay, cells were washed twice with assay buffer, and then resuspended at 2 million per mL in assay buffer containing 2 μM Yo-Pro-1 (Invitrogen). The assay buffer contained (in mM): 280 sucrose, 5 KCl, 10 glucose, 10 HEPES, 5 N-methyl-D-glucamine. The cells were added at 200 k/well into poly-D-lysine-coated black-walled 96-well plates (Biocoat, Becton-Dickinson). Test compounds were dissolved in DMSO, and then added at the test concentration to each well of the 96-well plate. Concentration dependence of block was determined by exposing each well of cells in duplicate rows of a 96-well plate to a serial dilution of test compound. The concentration series usually started at 10 μM with a three-fold decrement in concentration. The final DMSO concentration seen by the cells was less than 0.5%. Cells were incubated with test compounds for 30 minutes at 37° C. A background reading was taken using a Gemini SpectraMax with 490 nm excitation and 530 nm emission. […] After incubation for 60 minutes at 37° C., an endpoint read was taken in the SpectraMax plate reader. The amount of block of the response was determined by comparing the fluorescence intensity in each well to the average of control wells on each plate. The control wells contained either a known antagonist of P2X7 (positive controls) or a concentration of DMSO equal to that in the test wells. Data were analyzed using a nonlinear regression program (Origin, OriginLab, MA). Results are reported as the −log of the IC50 (pIC50).

Experiment [2] concerns the target T2, hP2X7 (Homo sapiens, UniProt Q99572).
T2 construct: expressed in transfected cells; host or cells: 1321N1 astrocytoma cells
T2 sequence (Q99572 1-595): T1 sequence (Q99572 1-595)
Briefly: P2X7 antagonism: ligand-induced Ca2+ flux in 1321N1 astrocytoma cells overexpressing hP2X7. The class given is cell-based. To be noted: pIC50 = -log(IC50), read-out: hP2RX7pIC50 (mean pIC50 values) (converted). In a few lines: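 Intracellular Ca2+ tracked with a quenched Ca2+-sensitive fluorescent dye kit (excitation 488 nm, emission 510-560 nm) in 1321N1 cells, before and after agonist addition in presence of antagonist. Effects expressed as % control and IC50.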
Background: Calcium assays in cells follow changes in intracellular calcium, usually with a dye or a luminescent sensor.

On to `O=C(NCC(c1cnc(C(F)(F)F)nc1)N1CCCCC1)c1c(Cl)ccc2nc(NCC(O)CO)ccc12` (stereo not shown) [Compound 550], for which the IC50 in experiment [1] was 2.34 nM. The same measure, in the same setting: the result for `O=C(NCC(c1cnc(C(F)(F)F)nc1)N1CCOCC1)c1c(Cl)ccc2nc(N3CC4(CNC4)C3)ccc12` (stereo not shown) [Compound 524] reads 30.2 nM; that for `O=C(O)CCCNc1ccc2c(C(=O)NCC(c3cnc(C(F)(F)F)nc3)N3CCOCC3)c(Cl)ccc2n1` (stereo not shown) [Compound 463], 380 nM. On the same count and under the same terms, the result for `O=C(NCC(c1cnc(C(F)(F)F)nc1)N1CCC(F)(F)CC1)c1c(Cl)ccc2nc(N3CCC4(CCCCN4)C3)ccc12` (stereo not shown) [Compound 529] reads 5.62 nM. Still for that read-out and setting: the result for `CN(C)CCNc1ccc2c(C(=O)NCC(c3cnc(C(F)(F)F)nc3)N3CCOCC3)c(Cl)ccc2n1` (stereo not shown) [Compound 412] reads 5.13 nM; that for `O=C(NCC(c1cnc(C(F)(F)F)nc1)N1CCC(F)(F)CC1)c1c(Cl)ccc2nc(N3CC[C@@H](O)C3)ccc12` (stereo partly shown) [Compound 484], 7.76 nM.

With `CN(CCN)c1ccc2c(C(=O)NCC(c3cnc(C(F)(F)F)nc3)N3CCC(F)(F)CC3)c(Cl)ccc2n1` (stereo not shown) [Compound 511], the IC50 in experiment [1] is 4.79 nM. On to `O=C(NCC(c1cnc(C(F)(F)F)nc1)N1CCC(F)(F)CC1)c1c(Cl)ccc2nc(NCC3CC3)ccc12` (stereo not shown) [Compound 507], for which, in experiment [1], the IC50 is 13.5 nM. On the same count and under the same terms, the result for `O=C(NCC(c1cnc(C(F)(F)F)nc1)N1CCC(F)(F)CC1)c1c(Cl)ccc2nc(O)ccc12` (stereo not shown) [Compound 593] reads 112 nM; that for `O=C(NCC(c1cnc(C(F)(F)F)nc1)N1CCOCC1)c1c(Cl)ccc2nc(NCCO)ccc12` (stereo not shown) [Compound 498], 9.12 nM. Consider `O=C(NCC(c1cnc(C(F)(F)F)nc1)N1CCOCC1)c1c(Cl)ccc2nc(N3CC4COCC4C3)ccc12` (stereo not shown) [Compound 525], for which the IC50 in experiment [1] was 52.5 nM. For `O=C(NCC(c1cnc(C(F)(F)F)nc1)N1CCOCC1)c1c(Cl)ccc2nc(N3CCOCC3)ccc12` (stereo not shown) [Compound 502], the IC50 in experiment [1] is 13.8 nM. Same read-out and setting: the result for `O=C(NCC(c1cnc(C(F)(F)F)nc1)N1CCOCC1)c1c(Cl)ccc2nc(N3CCC(N4CCCC4=O)CC3)ccc12` (stereo not shown) [Compound 442] reads 224 nM. `CC(C)CN1CCN(c2ccc3c(C(=O)NCC(c4cnc(C(F)(F)F)nc4)N4CCC(F)(F)CC4)c(Cl)ccc3n2)CC1` (stereo not shown) [Compound 426]: the IC50 in experiment [1] is 5.75 nM. As to `Cc1ncc(C(CNC(=O)c2cccc3nc(N4CCCCCC4)ccc23)N2CCOCC2)cn1` (stereo not shown) [Compound 119], the IC50 in experiment [2] was 89.1 nM. The same measure, in the same setting: for `CN(C)c1ncc(C(CNC(=O)c2cccc3nc(N4CCCC4)ccc23)N2CCOCC2)cn1` (stereo not shown) [Compound 218] the value was 316 nM; for `CC(C)CNc1ccc2c(C(=O)NCC(c3cnc(C(F)(F)F)nc3)N3CCOCC3)cccc2n1` (stereo not shown) [Compound 180], 67.6 nM; for `Cc1ncc(C(CNC(=O)c2cccc3nc(OC(C)C)ccc23)N2CCOCC2)cn1` (stereo not shown) [Compound 117], 182 nM.

Consider `O=C(NCC(c1cnc(NC2CC2)nc1)N1CCC(F)(F)CC1)c1cccc2nc(N3CCCC3)ccc12` (stereo not shown) [Compound 216], for which, in experiment [2], the IC50 was 100 nM. In the case of `O=C(NCC(c1cnc(NC2CC2)nc1)N1CCC(F)(F)CC1)c1cccc2nc(NC3CC3)ccc12` (stereo not shown) [Compound 270], the IC50 in experiment [2] was 102 nM. The same measure, in the same setting: the result for `O=C(NCC(c1cnc(C2CCCC2)nc1)N1CCOCC1)c1cccc2nc(N3CCOCC3)ccc12` (stereo not shown) [Compound 314] reads 151 nM. `CC(C)Oc1ncc(C(CNC(=O)c2cccc3nc(N4CCN(C(C)C)CC4)ccc23)N2CCOCC2)cn1` (stereo not shown) [Compound 289]: the IC50 in experiment [2] is 64.6 nM. Still for that read-out and setting: for `O=C(NCC(c1cnc(OCC2CC2)nc1)N1CCC(F)(F)CC1)c1cccc2nc(NCC3CC3)ccc12` (stereo not shown) [Compound 234] the value was 26.9 nM; for `O=C(NC[C@H](c1cnc(C(F)(F)F)nc1)N1CCC(F)(F)CC1)c1cccc2nc(N3CCNCC3)ccc12` [Compound 171], 26.9 nM. On to `Cc1ncc(C(CNC(=O)c2cccc3nc(N4CCCCC4)ccc23)N2CCOCC2)cn1` (stereo not shown) [Compound 98], for which the IC50 in experiment [2] is 52.5 nM. Still for that read-out and setting: for `CCc1ncc(C(CNC(=O)c2cccc3nc(NC4CC4)ccc23)N2CCOCC2)cn1` (stereo not shown) [Compound 207] the value was 138 nM. Consider `O=C(NCC(c1ccc(Br)nc1)N1CCC(F)(F)CC1)c1cccc2ncccc12` (stereo not shown) [Compound 2], for which, in experiment [2], the IC50 was 21.4 nM. Still for that read-out and setting: for `O=C(NCC(c1cnc(OC2CCC2)nc1)N1CCC(F)(F)CC1)c1cccc2nc(N3CCCC3)ccc12` (stereo not shown) [Compound 204] the value was 47.9 nM. On the same count and under the same terms, for `Cc1ncc(C(CNC(=O)c2cccc3nc(N4CCOCC4)ccc23)N2CCOCC2)cn1` (stereo not shown) [Compound 122] the value was 115 nM.

Regarding `CCOc1ncc(C(CNC(=O)c2cccc3nc(N4CCCC4)ccc23)N2CCC(F)(F)CC2)cn1` (stereo not shown) [Compound 212], the IC50 in experiment [2] is 41.7 nM. Still for that read-out and setting: the result for `COCCN1CCN(c2ccc3c(C(=O)NCC(c4cnc(C(F)(F)F)nc4)N4CCOCC4)cccc3n2)CC1` (stereo not shown) [Compound 281] reads 75.9 nM; that for `CCc1ncc(C(CNC(=O)c2cccc3nc(N4CCOCC4)ccc23)N2CCC(F)(F)CC2)cn1` (stereo not shown) [Compound 220], 83.2 nM; that for `CC(C)N(C)c1ccc2c(C(=O)NCC(c3cnc(C(F)(F)F)nc3)N3CCOCC3)cccc2n1` (stereo not shown) [Compound 272], 60.3 nM.

For `COc1ncc(C(CNC(=O)c2cccc3nc(N4CCN(C(C)C)CC4)ccc23)N2CCC(F)(F)CC2)cn1` (stereo not shown) [Compound 200], the IC50 in experiment [2] is 51.3 nM. Same read-out and setting: for `NC1CCN(c2ccc3c(C(=O)NCC(c4cnc(C(F)(F)F)nc4)N4CCOCC4)cccc3n2)CC1` (stereo not shown) [Compound 167] the value was 117 nM; for `O=C(NCC(c1cnc(C(F)(F)F)nc1)N1CCOCC1)c1cccc2nc(NC3CCC3)ccc12` (stereo not shown) [Compound 183], 53.7 nM. Regarding `CCc1cc2cc(C(=O)NCC(c3ccc(C(F)(F)F)nc3)N3CCC(F)(F)CC3)ccc2nc1C` (stereo not shown) [Compound 24], the IC50 in experiment [2] is 5250 nM. Same read-out and setting: for `CCOc1ncc(C(CNC(=O)c2cccc3nc(N4CCOCC4)ccc23)N2CCOCC2)cn1` (stereo not shown) [Compound 228] the value was 51.3 nM.

As to `O=C(NCC(c1cnc(C(F)(F)F)nc1)N1CCOCC1)c1cccc2nc(N3CCCC3)ccc12` (stereo not shown) [Compound 162], the IC50 in experiment [2] is 45.7 nM.

Turning to `O=C(NCC(c1cncnc1)N1CCC(F)(F)CC1)c1cccc2nc(NCC3CC3)ccc12` (stereo not shown) [Compound 211], in experiment [2], the IC50 is 79.4 nM.

Regarding `O=C(NCC(c1cnc(C2CCCC2)nc1)N1CCC(F)(F)CC1)c1cccc2nc(N3CCOCC3)ccc12` (stereo not shown) [Compound 249], the IC50 in experiment [2] was 51.3 nM. On the same count and under the same terms, for `COCC(C)Nc1ccc2c(C(=O)NCC(c3cnc(C(F)(F)F)nc3)N3CCOCC3)cccc2n1` (stereo not shown) [Compound 278] the value was 87.1 nM; for `CC(C)Oc1ncc(C(CNC(=O)c2cccc3nc(N4CCCC4)ccc23)N2CCC(F)(F)CC2)cn1` (stereo not shown) [Compound 305], 100 nM.

Take `CC(=O)N1CCN(c2ncc(C(CNC(=O)c3cccc4nc(NC5CC5)ccc34)N3CCC(F)(F)CC3)cn2)CC1` (stereo not shown) [Compound 251]: the IC50 in experiment [2] was 64.6 nM. Same read-out and setting: the result for `CC(C)N1CCN(c2ccc3c(C(=O)NCC(c4cnc(OCC5CC5)nc4)N4CCC(F)(F)CC4)cccc3n2)CC1` (stereo not shown) [Compound 291] reads 46.8 nM. The same measure, in the same setting: for `CC(C)c1ncc(C(CNC(=O)c2cccc3nc(N4CCOCC4)ccc23)N2CCC(F)(F)CC2)cn1` (stereo not shown) [Compound 265] the value was 64.6 nM; for `CCc1ncc(C(CNC(=O)c2cccc3nc(N4CCCC4)ccc23)N2CCOCC2)cn1` (stereo not shown) [Compound 290], 135 nM; for `CC(C)N1CCN(c2ccc3c(C(=O)NCC(c4cnc(N5CCNCC5)nc4)N4CCC(F)(F)CC4)cccc3n2)CC1` (stereo not shown) [Compound 312], 105 nM. Still for that read-out and setting: the result for `CC(=O)N1CCN(c2ncc(C(CNC(=O)c3cccc4nc(N5CCOCC5)ccc34)N3CCC(F)(F)CC3)cn2)CC1` (stereo not shown) [Compound 250] reads 77.6 nM.

These data come from patent US8431704B2, “Quinoline or isoquinoline substituted P2X7 antagonists” (Janssen Pharmaceutica NV, priority 2008, dated 2013).
